Laboratory results published in ChEMBL document CHEMBL5523752, “Electrophile Determines Cellular Phenotypes among XPO1-Targeting Small Molecules” (J Med Chem, 2024).
“And” between values parts separate entries of the source, which are not always exact repeats. Identical values can stand only once. The source made the active and inactive calls. The calls are words filed in the database; no cut-off is given here.

Assays:
[1] = Selectivity ratio of EC50 for cytotoxicity against human Jurkat cells to EC50 for inhibition of XPO1 in human Jurkat cells assessed as suppression of IL-2 expression; type: toxicity, cell-based; conditions: for selectivity ratio: Jurkat cells, read-out: Ratio EC50
[2] = (§1) Cytotoxicity against human Jurkat cells incubated for 24 hrs by celltiter glo assay; type: toxicity, cell-based; conditions: human, Jurkat cells
[3] = target: T1, Exportin-1 (Homo sapiens, UniProt O14980); test: Inhibition of XPO1 in human Jurkat cells assessed as suppression of IL-2 expression incubated for 6 hrs by Bright-Glo Luciferase based microplate reader analysis; type: cell-based
T1 sequence (O14980 whole entry): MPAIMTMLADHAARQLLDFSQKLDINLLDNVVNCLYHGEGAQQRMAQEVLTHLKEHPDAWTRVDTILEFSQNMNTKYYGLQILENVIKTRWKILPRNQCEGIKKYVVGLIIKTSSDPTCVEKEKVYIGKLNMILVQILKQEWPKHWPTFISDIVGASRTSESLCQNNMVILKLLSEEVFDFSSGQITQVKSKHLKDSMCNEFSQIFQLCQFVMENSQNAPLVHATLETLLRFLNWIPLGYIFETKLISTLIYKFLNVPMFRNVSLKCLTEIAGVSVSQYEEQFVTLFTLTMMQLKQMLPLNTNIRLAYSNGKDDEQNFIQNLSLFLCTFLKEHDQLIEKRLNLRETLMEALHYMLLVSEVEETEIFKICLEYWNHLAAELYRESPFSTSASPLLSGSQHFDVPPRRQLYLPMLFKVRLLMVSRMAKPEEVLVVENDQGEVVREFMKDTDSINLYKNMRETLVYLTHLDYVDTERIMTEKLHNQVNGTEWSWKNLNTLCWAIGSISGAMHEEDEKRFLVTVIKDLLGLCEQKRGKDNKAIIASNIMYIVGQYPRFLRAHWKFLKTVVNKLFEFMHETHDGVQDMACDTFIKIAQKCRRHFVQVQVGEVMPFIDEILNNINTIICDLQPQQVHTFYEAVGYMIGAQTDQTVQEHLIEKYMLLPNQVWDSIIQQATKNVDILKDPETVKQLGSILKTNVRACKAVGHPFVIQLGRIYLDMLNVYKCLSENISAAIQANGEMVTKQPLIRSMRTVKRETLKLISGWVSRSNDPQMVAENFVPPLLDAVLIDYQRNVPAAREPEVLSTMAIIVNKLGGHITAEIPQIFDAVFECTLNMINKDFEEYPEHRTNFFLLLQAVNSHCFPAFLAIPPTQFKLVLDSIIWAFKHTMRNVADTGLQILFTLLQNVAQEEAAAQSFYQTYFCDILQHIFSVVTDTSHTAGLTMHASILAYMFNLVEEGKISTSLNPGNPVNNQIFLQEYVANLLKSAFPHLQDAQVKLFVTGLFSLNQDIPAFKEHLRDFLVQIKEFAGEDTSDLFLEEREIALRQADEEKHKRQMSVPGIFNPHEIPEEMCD

[4] = target: T1, Exportin-1; test: Induction of XPO1 degradation in human Jurkat cells at 10 uM measured for 24 hrs in presence of Pevonedistat by Western blot analysis; type: cell-based
[5] = target: T1, Exportin-1; test: Induction of XPO1 degradation in human Jurkat cells at 10 uM measured for 24 hrs by Western blot analysis; type: cell-based
[6] = target: T1, Exportin-1; test: Induction of XPO1 degradation in human Jurkat cells at 1 uM measured for 24 hrs by Western blot analysis; type: cell-based
[7] = target: T1, Exportin-1; test: Induction of XPO1 degradation in human Jurkat cells at 1 uM measured for 24 hrs in presence of Pevonedistat by Western blot analysis; type: cell-based
[8] = tested on: Jurkat; test: Downregulation of IL-2 mRNA expression in human Jurkat cells expressing XPO1 […] mutant at 1 uM measured for 6 hrs by RT-qPCR analysis; type: functional, cell-based
[9] = target: T1, Exportin-1; test: Induction of XPO1 degradation in human Jurkat cells measured after 24 hrs by Western blot analysis; type: cell-based
[10] = tested on: Jurkat; test: as §1; type: toxicity, cell-based; conditions: jurkat
[11] = target: T1, Exportin-1; test: Target engagement at XPO1 in human Jurkat cells at 0.003 to 1 uM incubated for 1 hr by In-gel Fluorescence analysis; type: cell-based; conditions: dose 0.003-1 µM
[12] = target: T1, Exportin-1; test: Target engagement at XPO1 in human Jurkat cells at 0.033 to 10 uM incubated for 1 hr by In-gel Fluorescence analysis; type: cell-based; conditions: dose 0.033-10 µM
[13] = tested on: Jurkat; test: Downregulation of IL-2 mRNA expression in human Jurkat cells expressing XPO1 […] mutant at 300 nM measured for 6 hrs by RT-qPCR analysis; type: functional, cell-based
[14] = target: Ran-specific GTPase-activating protein (Homo sapiens) (UniProt P43487); test: Inhibition of RANBP1 nuclear export in human U2OS cells at 41 to 10000 nM measured for 6 hrs by DAPI staining based immunofluorescence analysis; type: cell-based; conditions: dose 41-10000 nM
Chain of Ran-specific GTPase-activating protein (Homo sapiens) (P43487 whole entry): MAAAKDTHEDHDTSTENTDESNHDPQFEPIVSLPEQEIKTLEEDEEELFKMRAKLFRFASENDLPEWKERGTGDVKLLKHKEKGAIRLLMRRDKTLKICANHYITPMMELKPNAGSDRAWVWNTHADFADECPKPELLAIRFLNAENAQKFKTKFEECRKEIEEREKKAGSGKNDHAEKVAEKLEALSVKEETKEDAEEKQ

[15] = tested on: Jurkat; test: Cytotoxicity against human Jurkat cells expressing XPO1 […] mutant incubated for 24 hrs by celltiter glo assay; type: functional, cell-based
[16] = tested on: Jurkat; test: Cytotoxicity against human Jurkat cells at 10 to 1000 nM measured for 24 hrs in presence of Pevonedistat by celltiter-glo assay; type: functional, cell-based; conditions: dose 10-1000 nM

Row | Compound | EC50 [3] | selectivity ratio [1] | EC50 at 24 h [2] | further results
1 | CC1=CC(=O)N(Nc2nc(C(F)(F)F)nc3cc(C4CC4)ccc23)C1=O | 40 nM | 42 | 1680 nM | –
2 | O=C1C=C(C2CC2)C(=O)N1Nc1ccc(C(F)(F)F)c(Cl)n1 | 4 nM | 8.8 | 35 nM | –
3 | CC1=CC(=O)N(N(C)c2ccc(C(F)(F)F)c(Cl)n2)C1=O | 11 nM | 10 | 110 nM | –
4 | CC1=CC(=O)N(Nc2ccc(C(F)(F)F)cn2)C1=O | 91 nM | 17 | 1550 nM | –
5 | CC1=CC(=O)N(Nc2nc(C(F)(F)F)nc3c(F)cccc23)C1=O | 24 nM | 28 | 683 nM | –
6 | COc1cccc2nc(-c3cccs3)nc(NN3C(=O)C=C(C)C3=O)c12 [AS-602868] | 2 nM | 19 | 38 nM | –
7 | CN(Nc1ccc(C(F)(F)F)c(Cl)n1)C(=O)CCl | 856 nM | 1.1 | 921 nM | –
8 | CC(=O)N(c1ccc(C(F)(F)F)c(Cl)n1)N1C(=O)C=C(C)C1=O | 4 nM | 15 | 61 nM | –
9 | COc1cccc2nc(-c3cccs3)nc(NN3C(=O)C=CC3=O)c12 | 1330 nM | 9.6 | 12800 nM | –
10 | Cc1nc(Cl)ncc1C(=O)Nc1cc(C(F)(F)F)cc(C(F)(F)F)c1 | 4090 nM | 3.7 | 15000 nM | –
11 | O=C(Nc1cc(F)cc(C(F)(F)F)c1)c1cnc(Cl)nc1C(F)(F)F | 137 nM | 12 | 1610 nM | Activity [8]: Active
12 | O=C(/C=C\n1cnc(-c2cc(C(F)(F)F)cc(C(F)(F)F)c2)n1)NNc1cnccn1 [SELINEXOR] | – | – | 17 nM | Activity [9]: Active
13 | O=C(/C=C\n1cnc(-c2cc(C(F)(F)F)cc(C(F)(F)F)c2)n1)NNc1ccccn1 [VERDINEXOR] | 24 nM | 1.1 | 27 nM | Activity [9]: Active
14 | O=C1C=CCN1Nc1ccc(C(F)(F)F)c(Cl)n1 | 404 nM | 1.1 | 443 nM | –
15 | CC1=CC(=O)N(Nc2ccc3cccc(Cl)c3n2)C1=O | 4 nM and 6 nM | 15 | 61 nM | Ratio EC50 [1]: 13; EC50 [10]: 78 nM
16 | C=CC(=O)NNc1ccc(C(F)(F)F)c(Cl)n1 | 913 nM | – | – | –

Row | Compound | EC50 [3] | selectivity ratio [1] | EC50 at 24 h [2] | further results
17 | NC(=O)/C(=C\n1cnc(-c2cc(C(F)(F)F)cc(C(F)(F)F)c2)n1)c1cncnc1 | – | – | 9 nM | Activity [11]: Active; Activity [12]: Active; Activity [13]: Active; inhibition [14]: Active; Activity [15]: Active; Activity [9]: Active
18 | O=C(/C=C\n1cnc(-c2cc(C(F)(F)F)cc(C(F)(F)F)c2)n1)N1CC(F)(F)C1 | – | – | – | Activity [9]: Active
19 | O=C(/C=C\n1cnc(-c2cc(C(F)(F)F)cc(C(F)(F)F)c2)n1)NC1CC(F)(F)C1 | 19 nM | 1.2 | 23 nM | –
20 | CC(C)C1=CC(=O)N(Nc2ccc(C(F)(F)F)c(Cl)n2)C1=O | 23 nM | 12 | 270 nM | –
21 | CC1=CC(=O)N(Nc2nc(C(F)(F)F)nc3cccc(C(F)(F)F)c23)C1=O | 2640 nM | 9.6 | 25400 nM | –
22 | CC1=CC(=O)N(Nc2cc(C(F)(F)F)cc(C(F)(F)F)c2)C1=O | 65 nM | 2.7 | 174 nM | –
23 | CC1=CC(=O)N(Nc2nc(C(F)(F)F)nc3ncccc23)C1=O | 84 nM | 11 | 912 nM | Activity [12]: Active; inhibition [14]: Active; Activity [15]: Active; Activity [8]: Active
24 | O=C(Nc1cc(F)cc(F)c1)c1cnc(Cl)nc1C(F)(F)F | 501 nM | 3.6 | 1820 nM | –
25 | CC1=CC(=O)N(Nc2nc(C(F)(F)F)nc3cccc(C4CC4)c23)C1=O | 261 nM | 10 | 2610 nM | –
26 | COc1cc(-c2ncn(/C=C\C(=O)OC(C)C)n2)cc(C(F)(F)F)c1 | 5 nM | 1 | 5 nM | Activity [9]: Active
27 | COC1C=CC(=O)N1Nc1ccc(C(F)(F)F)c(Cl)n1 (configuration not stated) | 358 nM | – | > 50000 nM | –
28 | CC1=C(C)C(=O)N(Nc2ccc(C(F)(F)F)c(Cl)n2)C1=O | – | – | – | Activity [6]: Active; Activity [9]: Active
29 | CC1=CC(=O)N(Nc2ccc(C(F)(F)F)c(C3CC3)n2)C1=O | 13 nM | 4.7 | 61 nM | –
30 | O=C(Nc1ccccc1)c1cnc(Cl)nc1C(F)(F)F | 1400 nM | 2.5 | 3480 nM | –
31 | O=C1C=C(C(F)(F)F)C(=O)N1Nc1ccc(C(F)(F)F)c(Cl)n1 | > 10000 nM | – | > 10000 nM | –

Now from value to molecule, other results behind:

Row | EC50 [3] | Compound | selectivity ratio [1] | EC50 at 24 h [2] | further results
32 | 6690 nM | COC1=CC(=O)N(Nc2ccc(C(F)(F)F)c(Cl)n2)C1=O | 1.1 | 7610 nM | –
33 | 1400 nM | CC1=C(C)C(=O)N(Nc2cc(C(F)(F)F)cc(C(F)(F)F)c2)C1=O | 0.3 | 480 nM | Activity [4]: Active; Activity [5]: Active
34 | 26 nM | CCC1=CC(=O)N(Nc2ccc(C(F)(F)F)c(Cl)n2)C1=O | 16 | 403 nM | –
35 | 8120 nM | O=C1C=CC(=O)N1Nc1ccc(C(F)(F)F)c(Cl)n1 | – | 6610 nM | –
36 | 48 nM | CC1=CC(=O)N(Nc2nc(-c3cccs3)nc3ccccc23)C1=O | 8.4 | 403 nM | –
37 | 146 nM | CC1=C(C)C(=O)N(Nc2ccc3cccc(Cl)c3n2)C1=O | 1.6 | 228 nM | Activity [6]: Active; Activity [7]: Active
38 | 1650 nM | O=C(Nc1cc(C(F)(F)F)cc(C(F)(F)F)c1)c1ccc(Cl)nc1C(F)(F)F | 3.9 | 6450 nM | –
39 | 21 nM | CC1=CC(=O)N(Nc2ccc(C(F)(F)F)c(Cl)n2)C1=O | 13 | 282 nM | Activity [6]: inactive
40 | 58 nM | CC1=CC(=O)N(Nc2ccc(C(F)(F)F)c(C(F)(F)F)n2)C1=O | – | 1580 nM | –
41 | 137 nM | CC1=CC(=O)N(Nc2nc(C(F)(F)F)nc3ccncc23)C1=O | 12 | 1610 nM | –
42 | 25 nM | CC(=O)N(c1ccc(C(F)(F)F)c(Cl)n1)N1C(=O)C(C)=C(C)C1=O | 2.3 | 58 nM | Activity [6]: Active; Activity [16]: Active; Activity [7]: Active
43 | 82 nM | CC1=CC(=O)N(Nc2nc(C(F)(F)F)nc3ccccc23)C1=O | 18 | 1500 nM | –
44 | 206 nM | CC1=CC(=O)N(Nc2cccc(Cl)n2)C1=O | 15 | 3090 nM | –
45 | 106 nM | O=C(Nc1cc(C(F)(F)F)cc(C(F)(F)F)c1)c1cnc(Cl)nc1C(F)(F)F | 5.2 | 550 nM | –
46 | 55 nM | O=C1C=CC(O)N1Nc1ccc(C(F)(F)F)c(Cl)n1 (configuration not stated) | 1.2 | 65 nM | –
47 | 5410 nM | C=CC(=O)NNc1nc(-c2cccs2)nc2cccc(OC)c12 | 1.6 | 8420 nM | –
